Measurements as given in ChEMBL document CHEMBL3612012, “Identification of orally-bioavailable antagonists of the TRPV4 ion-channel” (Bioorg Med Chem Lett, 2015).
≈ marks a conversion by molar mass, not a printed value.

Assays:
[1] = Plasma protein binding in rat; assay type: ADME, cell-free; details: read-out: PPB (converted)
[2] = Solubility of the compound at pH 7.4; assay type: physicochemical; details: buffer
[3] = target: Transient receptor potential cation channel subfamily V member 4 (Rattus norvegicus, UniProt Q9ERZ8); test: Antagonist activity at rat TRPV4 receptor expressed in HEK293 cells assessed as inhibition of EC80 of 4alpha-PDD-stimulated calcium flux after 10 mins; assay type: cell-based
Sequence of Transient receptor potential cation channel subfamily V member 4 (Rattus norvegicus, UniProt Q9ERZ8) (Q9ERZ8 whole entry): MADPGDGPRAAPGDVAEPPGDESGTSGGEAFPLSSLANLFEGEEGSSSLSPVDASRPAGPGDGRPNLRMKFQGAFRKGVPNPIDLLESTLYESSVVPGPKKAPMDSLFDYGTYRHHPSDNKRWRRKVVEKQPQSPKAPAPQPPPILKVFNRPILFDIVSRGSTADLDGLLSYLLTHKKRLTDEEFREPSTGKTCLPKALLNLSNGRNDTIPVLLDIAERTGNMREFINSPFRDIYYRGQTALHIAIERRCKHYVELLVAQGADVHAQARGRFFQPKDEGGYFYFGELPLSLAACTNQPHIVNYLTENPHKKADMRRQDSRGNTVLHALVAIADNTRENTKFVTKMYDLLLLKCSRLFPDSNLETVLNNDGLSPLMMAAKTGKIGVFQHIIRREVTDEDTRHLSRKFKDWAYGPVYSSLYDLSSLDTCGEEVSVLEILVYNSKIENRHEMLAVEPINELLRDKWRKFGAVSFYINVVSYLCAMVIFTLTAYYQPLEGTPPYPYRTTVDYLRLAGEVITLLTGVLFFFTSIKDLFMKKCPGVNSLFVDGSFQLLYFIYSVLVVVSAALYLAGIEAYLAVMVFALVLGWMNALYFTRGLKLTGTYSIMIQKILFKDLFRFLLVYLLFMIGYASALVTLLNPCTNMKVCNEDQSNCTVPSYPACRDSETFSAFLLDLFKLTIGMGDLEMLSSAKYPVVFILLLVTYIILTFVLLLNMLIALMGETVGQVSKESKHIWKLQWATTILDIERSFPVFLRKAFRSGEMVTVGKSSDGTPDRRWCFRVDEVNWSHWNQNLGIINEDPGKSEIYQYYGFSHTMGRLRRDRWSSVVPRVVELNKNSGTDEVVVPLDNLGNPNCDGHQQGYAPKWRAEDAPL

[4] = Clearance in Wistar rat at 1.05 mg/kg, iv; assay type: ADME, organism-based; details: in vivo
[5] = AUC (infinity) in Wistar rat at 1.05 mg/kg, iv; assay type: ADME, organism-based; design: dose 1.05 mg/kg, route intravenous, time infinity; details: in vivo
[6] = Half life in Wistar rat at 1.05 mg/kg, iv; assay type: ADME, organism-based; details: in vivo
[7] = AUC (infinity) in Wistar rat at 1.80 mg/kg, po; assay type: ADME, organism-based; design: dose 1.8 mg/kg, time infinity, route oral; details: in vivo, 1.8 mg/kg
[8] = Cmax in Wistar rat at 1.80 mg/kg, po; assay type: ADME, organism-based; design: dose 1.8 mg/kg, route oral; details: in vivo, 1.8 mg/kg
[9] = Plasma protein binding in human; assay type: ADME, cell-free; details: read-out: PPB (converted)
[10] = target: Transient receptor potential cation channel subfamily V member 4 (Homo sapiens, UniProt Q9HBA0); test: Antagonist activity at human TRPV4 receptor expressed in HEK293 cells assessed as inhibition of EC80 of 4alpha-PDD-stimulated calcium flux after 10 mins; assay type: cell-based
Sequence of Transient receptor potential cation channel subfamily V member 4 (Homo sapiens, UniProt Q9HBA0) (Q9HBA0 whole entry): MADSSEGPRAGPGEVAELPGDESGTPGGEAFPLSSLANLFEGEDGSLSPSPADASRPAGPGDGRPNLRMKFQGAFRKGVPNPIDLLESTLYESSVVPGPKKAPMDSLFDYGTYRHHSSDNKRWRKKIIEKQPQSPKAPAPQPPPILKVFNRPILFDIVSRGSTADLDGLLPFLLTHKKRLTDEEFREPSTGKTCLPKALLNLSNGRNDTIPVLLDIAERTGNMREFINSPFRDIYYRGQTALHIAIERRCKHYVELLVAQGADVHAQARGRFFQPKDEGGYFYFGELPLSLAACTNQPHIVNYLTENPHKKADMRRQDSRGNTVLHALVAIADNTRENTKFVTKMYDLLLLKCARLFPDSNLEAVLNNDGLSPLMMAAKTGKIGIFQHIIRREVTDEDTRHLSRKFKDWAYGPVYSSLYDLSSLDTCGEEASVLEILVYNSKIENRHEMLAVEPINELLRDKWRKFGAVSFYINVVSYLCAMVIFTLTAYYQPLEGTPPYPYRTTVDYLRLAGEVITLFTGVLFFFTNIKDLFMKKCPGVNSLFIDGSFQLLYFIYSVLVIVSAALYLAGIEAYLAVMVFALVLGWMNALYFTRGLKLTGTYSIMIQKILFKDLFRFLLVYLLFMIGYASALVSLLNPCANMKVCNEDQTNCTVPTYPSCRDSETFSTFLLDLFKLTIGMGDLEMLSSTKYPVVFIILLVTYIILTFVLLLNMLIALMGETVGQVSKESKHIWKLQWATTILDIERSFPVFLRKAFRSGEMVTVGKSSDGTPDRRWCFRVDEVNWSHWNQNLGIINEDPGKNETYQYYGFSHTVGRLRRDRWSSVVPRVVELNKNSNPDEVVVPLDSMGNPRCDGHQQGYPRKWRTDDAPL

[11] = Volume of distribution at steady state in Wistar rat at 1.05 mg/kg, iv; assay type: ADME, organism-based; details: in vivo, read-out: Vdss
[12] = Oral bioavailability in Wistar rat at 1.80 mg/kg; assay type: ADME, organism-based; details: in vivo, 1.8 mg/kg

| Structure (SMILES) | IC50 [3] [nM] | IC50 [10] [nM] | other results |
| --- | --- | --- | --- |
| CC(C)N1CCN(S(=O)(=O)c2ccc(NS(=O)(=O)c3ccc(C(F)(F)F)cc3)cc2)CC1 | > 10000 | > 10000 |  |
| CC(C)N1CCN(S(=O)(=O)c2ccc(NC(=O)c3ccccc3)cc2)CC1 | 4300 | 8530 |  |
| CN(C)C1CCN(S(=O)(=O)c2ccc(NC(=O)c3ccc(C(F)(F)F)cc3)cc2)CC1 |  | 2110 |  |
| CC(C)N1CCN(S(=O)(=O)c2ccc(NC(=O)c3ccc(-c4ccccn4)cc3)cc2)CC1 | 6490 | 4930 |  |
| CN(C)S(=O)(=O)c1ccc(NC(=O)c2ccc(C(F)(F)F)cc2)cc1 | 5740 | 4220 |  |
| CC(C)N1CCN(C(=O)c2ccc(NC(=O)c3ccc(C(F)(F)F)cc3)cc2)CC1 | > 10000 | > 10000 |  |
| CCN(CC)C1CCN(S(=O)(=O)c2ccc(NC(=O)c3ccc(C(F)(F)F)cc3)cc2)CC1 |  | 910 |  |
| O=C(Nc1ccc(S(=O)(=O)N2CCN(C3CCCC3)CC2)cc1)c1ccc(C(F)(F)F)cc1 |  | 800 |  |
| CCN(C)C1CCN(S(=O)(=O)c2ccc(NC(=O)c3ccc(C(F)(F)F)cc3)cc2)CC1 |  | 1280 |  |
| CC(C)N1CCN(S(=O)(=O)c2ccc(NC(=O)c3ccc(C(C)(C)C)cc3)cc2)CC1 | 1050 | 390 |  |
| CC(C)N1CCN(S(=O)(=O)c2ccc(NC(=O)c3ccc(-c4ncccc4Cl)cc3)cc2)CC1 | 3900 | 930 |  |

More lines, main results first:

| IC50 [3] [nM] | IC50 [10] [nM] | Structure (SMILES) | other results |
| --- | --- | --- | --- |
| 390 | 260 | CC(C)N1CCN(S(=O)(=O)c2ccc(NC(=O)c3ccc(S(F)(F)(F)(F)F)cc3)cc2)CC1 | fraction unbound [1]: 0.0009; solubility [2]: 0.15 µM (≈ 0.077 µg/mL); clearance [4]: 22.5 mL/min/kg; AUC(0-inf) [5]: 779 ng·h/mL; half-life [6]: 1.03 h; AUC(0-inf) [7]: 303 ng·h/mL; Cmax [8]: 143 ng/mL; fraction unbound [9]: 0.0008; Vd [11]: 2.01 L/kg; bioavailability [12]: 22.7% |
|  | 1320 | CC(C)N1CCCN(S(=O)(=O)c2ccc(NC(=O)c3ccc(C(F)(F)F)cc3)cc2)CC1 |  |
| 2920 | 930 | CC(C)N1CCN(S(=O)(=O)c2ccc(NC(=O)c3ccc(C(F)(F)F)cc3N)cc2)CC1 |  |
| 940 | 710 | CC(C)N1CCN(S(=O)(=O)c2ccc(NC(=O)c3ccc(C(F)(F)F)cc3)cc2)CC1 |  |
| 370 | 380 | CC(C)N1CCN(S(=O)(=O)c2ccc(NC(=O)c3ccc(C(F)(F)F)cc3F)cc2)CC1 |  |
| 1940 | 2170 | CC(C)N1CCN(S(=O)(=O)c2ccc(NC(=O)c3cccc(C(F)(F)F)c3)cc2)CC1 |  |
| 490 | 540 | CC(C)N1CCN(S(=O)(=O)c2ccc(NC(=O)c3ccc(C(F)(F)F)cc3C(F)(F)F)cc2)CC1 |  |
